Assay results as given in US20150094474A1, “AGRICULTURAL CHEMICALS” (Redx Pharma Ltd., priority 2012, published 2015).

How the values were obtained:
Format in all cases: in vivo
Conditions in all cases: 20% concentration
black ants, Lasius niger = experiment: Insect repellent bioassay, black ants (treated tile arena)
Method: (§1) A laboratory bioassay was conducted to screen 5 compounds (Icaridin (38); and 4 icaridin analogues: 39, 40a, 42a and 41) for repellent activity against houseflies, Musca domestica, black ants, Lasius niger, German cockroaches, Blattella germanica, and bedbugs, Cimex lectularius. Compounds were diluted in a mixture of ethanol and water and assessed at a 20% concentration. A mixture of ethanol/water only negative control was also included for comparative purposes. These were applied onto an aluminium foil tile, which was placed into one half of an arena. The other half of the arena contained an untreated aluminium foil tile. The number of insects present in the treated and untreated area was assessed every 5 minutes for a total of 20 minutes.
Black ants, Lasius niger, were field collected from the Cardiff area. Mixed age worker ants were used in the experiments.
(§2) Temperature was maintained between 24.2 and 24.6° C. and relative humidity ranged between 27.5% and 43.5%, throughout the experimental period.
(§3) The tested compounds were diluted in ethanol and water to a concentration of 20% (w/w: compound 20%, ethanol 40%, water 40%). The concentrates were prepared at room temperature and stirred for approximately 15 minutes using a vortex mixer. A negative control (mixture of ethanol:water 50:50) was also included in the testing for comparative purposes. Treatments were applied directly on to a non porous surface (aluminium foil), using a Gilson pipette at a rate of 0.225 ml per 225 cm^2 surface tile. A small piece of acetate was used to evenly spread the treatments across the entire surface of the tile.
(§4) For the testing against ants, cockroaches and bedbugs: A clear plastic container was used measuring approximately 34 cm long×21 cm wide×20 cm high. This was divided into two halves. The treated aluminium foil was placed in one half and the other half contained untreated foil. Food (sugar cube for black ants and bran pellet for cockroaches) and water (damp cotton wool) were placed in each half where appropriate. Twenty ants/cockroaches and ten bedbugs were placed in the centre of the arena. The number of insects in each half was assessed at 5 minute intervals for a total of 20 minutes.
(§5) Three to six replicates were performed for each treatment, for each species.

[1] = tested on: bedbugs, Cimex lectularius; experiment: Insect repellent bioassay, bedbugs (treated tile arena)
Method: as §1
Bedbugs, Cimex lectularius, were obtained from a laboratory culture maintained at CimexStore (Chepstow, UK). Mixed age and sex adult bedbugs were used in the experiments (see deviation below).
as §2, §3, §4, §5

[2] = tested on: German cockroaches, Blattella germanica; experiment: Insect repellent bioassay, German cockroaches (treated tile arena)
Method: as §1
(§6) Houseflies, Musca domestica, and German cockroaches, Blattella germanica, were obtained from a laboratory culture maintained at i2LResearch. Mixed sex and age adult insects (flies were aged 3-6 days old) were used in the experiments.
as §2, §3, §4, §5

[3] = tested on: houseflies, Musca domestica; experiment: Insect repellent bioassay, houseflies (treated tile arena)
Method: as §1, §6, §2, §3
For the testing against houseflies: A clear plastic container was used measuring approximately 34 cm long×21 cm wide×20 cm high, with a piece of netting and lid on top. This was divided into two halves using an additional tile with a small slit measuring approximately 2.5 cm×5 cm cut at a height of […] from the base, so that the insects could freely travel between halves. A treated and untreated tile was placed either side of the dividing panel. Twenty flies were placed in the half with the treated surface. Sugar and water was placed in both halves. The number of insects crossing from the treated area into the untreated area was assessed at 5 minute intervals for a total of 20 minutes.
as §5

SMILES	insects on the treated tile (black ants, Lasius niger; TIME 5 mins)	insects on the treated tile (black ants, Lasius niger; TIME 10 mins)	insects on the treated tile (black ants, Lasius niger; TIME 15 mins)	insects on the treated tile (black ants, Lasius niger; TIME 20 mins)	insects on the treated tile ([1]; TIME 5 mins)	insects on the treated tile ([1]; TIME 10 mins)	insects on the treated tile ([1]; TIME 15 mins)	insects on the treated tile ([1]; TIME 20 mins)	insects on the treated tile ([2]; TIME 5 mins)	insects on the treated tile ([2]; TIME 10 mins)	insects on the treated tile ([2]; TIME 15 mins)	insects on the treated tile ([2]; TIME 20 mins)	insects moving towards the treated tile ([3]; TIME 5 mins)	insects moving towards the treated tile ([3]; TIME 10 mins)	insects moving towards the treated tile ([3]; TIME 15 mins)	insects moving towards the treated tile ([3]; TIME 20 mins)
CCC(C)OC(=O)N1CCCCC1CC(=O)OC (stereo not drawn) [Compound 42a, sec-Butyl 2-(2-methoxy-2-oxo-ethyl)piperidine-1-carboxylate]	B (between 11% and 25% were on the treated tile)	B (between 11% and 25% were on the treated tile)	B (between 11% and 25% were on the treated tile)	A (10% or less of the insects were on the treated tile)	A (10% or less of the insects were on the treated tile)	A (10% or less of the insects were on the treated tile)	A (10% or less of the insects were on the treated tile)	A (10% or less of the insects were on the treated tile)	B (between 11% and 25% were on the treated tile)	B (between 11% and 25% were on the treated tile)	B (between 11% and 25% were on the treated tile)	B (between 11% and 25% were on the treated tile)	A (10% or less of the insects were on the treated tile)	A (10% or less of the insects were on the treated tile)	B (between 11% and 25% were on the treated tile)	B (between 11% and 25% were on the treated tile)
CCC(C)OC(=O)N1CCCCC1CCO (stereo not drawn) [Icaridin (38), Icaridin, reference compound]	B (between 11% and 25% were on the treated tile)	B (between 11% and 25% were on the treated tile)	B (between 11% and 25% were on the treated tile)	A (10% or less of the insects were on the treated tile)	A (10% or less of the insects were on the treated tile)	A (10% or less of the insects were on the treated tile)	A (10% or less of the insects were on the treated tile)	A (10% or less of the insects were on the treated tile)	B (between 11% and 25% were on the treated tile)	B (between 11% and 25% were on the treated tile)	A (10% or less of the insects were on the treated tile)	A (10% or less of the insects were on the treated tile)	B (between 11% and 25% were on the treated tile)	C (greater than 25% were on the treated tile)	C (greater than 25% were on the treated tile)	C (greater than 25% were on the treated tile)
CCC(C)OC(=O)N1CCCCC1CC(=O)O (stereo not drawn) [Compound 41, 2-(1-sec-Butoxycarbonyl-2-piperidyl)acetic acid]	C (greater than 25% were on the treated tile)	C (greater than 25% were on the treated tile)	C (greater than 25% were on the treated tile)	C (greater than 25% were on the treated tile)	A (10% or less of the insects were on the treated tile)	B (between 11% and 25% were on the treated tile)	B (between 11% and 25% were on the treated tile)	B (between 11% and 25% were on the treated tile)	B (between 11% and 25% were on the treated tile)	B (between 11% and 25% were on the treated tile)	B (between 11% and 25% were on the treated tile)	B (between 11% and 25% were on the treated tile)	A (10% or less of the insects were on the treated tile)	A (10% or less of the insects were on the treated tile)	B (between 11% and 25% were on the treated tile)	B (between 11% and 25% were on the treated tile)
CCC(C)OC(=O)N1CCCCC1CC=O (stereo not drawn) [Compound 39, sec-Butyl 2-(2-oxoethyl)piperidine-1-carboxylate]	B (between 11% and 25% were on the treated tile)	B (between 11% and 25% were on the treated tile)	B (between 11% and 25% were on the treated tile)	B (between 11% and 25% were on the treated tile)	A (10% or less of the insects were on the treated tile)			A (10% or less of the insects were on the treated tile)	B (between 11% and 25% were on the treated tile)	B (between 11% and 25% were on the treated tile)	B (between 11% and 25% were on the treated tile)	B (between 11% and 25% were on the treated tile)	B (between 11% and 25% were on the treated tile)	C (greater than 25% were on the treated tile)	C (greater than 25% were on the treated tile)	C (greater than 25% were on the treated tile)
CCC(C)OC(=O)N1CCCCC1C/C=N/O (stereo not drawn) [Compound 40a]	C (greater than 25% were on the treated tile)	C (greater than 25% were on the treated tile)	C (greater than 25% were on the treated tile)	C (greater than 25% were on the treated tile)		A (10% or less of the insects were on the treated tile)			C (greater than 25% were on the treated tile)	B (between 11% and 25% were on the treated tile)	B (between 11% and 25% were on the treated tile)	B (between 11% and 25% were on the treated tile)	B (between 11% and 25% were on the treated tile)	B (between 11% and 25% were on the treated tile)	B (between 11% and 25% were on the treated tile)	B (between 11% and 25% were on the treated tile)
